In ChEMBL document CHEMBL1128726, “N-substituted oxazolo[5,4-b]pyridin-2(1H)-ones: a new class of non-opiate antinociceptive agents” (J Med Chem, 1995):

Tests used:
Mus musculus [1] = assay: Inhibition of phenylquinone induced writhing in mice following 50 mg/kg p.o.; type: functional; conditions: route oral
Mus musculus [2] = species: Mus musculus; assay: Analgesic activity against phenylquinone induced writhing in mice compared to that of aspirin.; type: functional
Rattus norvegicus [3] = species: Rattus norvegicus; assay: Analgesic activity against acetic acid-induced writhing in the rat compared to that of aspirin.; type: functional
Rattus norvegicus [4] = assay: Inhibition of acetic acid induced writhing in rat following 50 mg/kg p.o.; type: functional; conditions: route oral
Mus musculus [5] = assay: Analgesic activity was evaluated in mice by hot plate assay and percent change in foot licking latency was determined at 8 mg/kg i.p. dose; type: functional; conditions: route intraperitoneal
Rattus norvegicus [6] = assay: Antiinflammatory activity was evaluated by carrageenan induced rat paw edema (6 rats/ dose) at peroral dose of 50 mg/kg by inhibition of leukotriene B4 (LTB4) synthesis.; type: functional; conditions: route oral
Mus musculus [7] = species: Mus musculus; assay: Antinociceptive potency against phenylquinone (PBQ)-induced writhing in mice (8 mice/dose); type: functional
Mus musculus [8] = assay: Mortality threshold doses was determined from orientative acute toxicity Irwin test (3 mice/dose) by peroral administration; type: organism-based; conditions: in vivo, po
Rattus norvegicus [9] = assay: Antiinflammatory activity was evaluated by carrageenan induced rat paw edema (6 rats/ dose) at peroral dose of 50 mg/kg by inhibition of Prostaglandin E2 (PGE2).; type: functional; conditions: route oral
Rattus norvegicus [10] = assay: Antiinflammatory activity was evaluated by carrageenan induced rat paw edema volume was determined.; type: functional
Rattus norvegicus [11] = species: Rattus norvegicus; assay: Antinociceptive potency against acetic acid -induced writhing in rat (8 rats/dose); type: functional
Rattus norvegicus [12] = assay: Antiinflammatory activity was evaluated by carrageenan induced rat paw edema (6 rats/ dose) at peroral dose of 10 mg/kg by inhibition of leukotriene B4 (LTB4) synthesis.; type: functional; conditions: route oral
Rattus norvegicus [13] = species: Rattus norvegicus; assay: animal or person; conditions: po, read-out: Inhibition
Description: Antiinflammatory activity was evaluated by carrageenan induced rat paw edema (6 rats/ dose) at peroral dose of 10 mg/kg by inhibition of Prostaglandin E2 (PGE2).

Rattus norvegicus [14] = assay: Antiinflammatory activity was evaluated by carrageenan induced rat paw edema (6 rats/ dose) at peroral dose of 50 mg/kg and percent of variation of edema volume was determined.; type: functional; conditions: route oral
Mus musculus [15] = assay: Analgesic activity was evaluated in mice by hot plate assay and percent change in foot licking latency was determined at 32 mg/kg i.p. dose. p<0.05; type: functional; conditions: route intraperitoneal
Mus musculus [16] = assay: Mortality threshold doses was determined from orientative acute toxicity Irwin test (3 mice/dose) by peroral administration. Value in parentheses represent the percent mortality.; type: organism-based; conditions: in vivo, po
Rattus norvegicus [17] = assay: % inhibition of acetic acid-induced writhing in rat at 1.5 mg/kg peroral dose, 180 min postdose(5 rats per compound at each time).p<0.05; type: functional; conditions: 3 h, route oral
Rattus norvegicus [18] = assay: % inhibition of acetic acid-induced writhing in rat at 1.5 mg/kg peroral dose, 360 min postdose(5 rats per compound at each time); type: functional; conditions: 6 h, route oral
Rattus norvegicus [19] = assay: % inhibition of acetic acid-induced writhing in rat at 1.5 mg/kg peroral dose, 120 min postdose(5 rats per compound at each time).p<0.05; type: functional; conditions: 2 h, route oral
Rattus norvegicus [20] = assay: % inhibition of acetic acid-induced writhing in rat at 1.5 mg/kg peroral dose, 15 min postdose(5 rats per compound at each time). p<0.05; type: functional; conditions: 0.25 h, route oral
Rattus norvegicus [21] = assay: % inhibition of acetic acid-induced writhing in rat at 1.5 mg/kg peroral dose, 30 min postdose(5 rats per compound at each time).p<0.001; type: functional; conditions: 0.5 h, route oral
Rattus norvegicus [22] = assay: % inhibition of acetic acid-induced writhing in rat at 1.5 mg/kg peroral dose, 60 min postdose(5 rats per compound at each time).p<0.01; type: functional; conditions: 1 h, route oral
Rattus norvegicus [23] = assay: Antiinflammatory activity was evaluated by carrageenan induced rat paw edema (6 rats/ dose) at peroral dose of 200 mg/kg and percent of variation of edema volume was determined.; type: functional; conditions: route oral
Rattus norvegicus [24] = assay: Antiinflammatory activity was evaluated by carrageenan induced rat paw edema (6 rats/ dose) at peroral dose of 200 mg/kg by inhibition of leukotriene B4 (LTB4) synthesis.; type: functional; conditions: route oral
Rattus norvegicus [25] = assay: Antiinflammatory activity was evaluated by carrageenan induced rat paw edema (6 rats/ dose) at peroral dose of 200 mg/kg by inhibition of Prostaglandin E2 (PGE2).; type: functional; conditions: route oral

Compound	inhibition in vivo at 50 mg/kg (Mus musculus [1])	Activity ratio (Mus musculus [2])	Activity ratio (Rattus norvegicus [3])	inhibition in vivo at 50 mg/kg (Rattus norvegicus [4])	ED50 (Mus musculus [7])	ED50 (Rattus norvegicus [11])	also measured
CC(CCn1c(=O)oc2ncccc21)N1CCN(c2ccc(F)cc2)CC1 (centres undefined)	63%	1.3	0.7	51%	–	–	–
O=c1oc2ncccc2n1CCCCN1CCN(c2ccc(F)cc2)CC1	100%	1.9	2.2	87%	2.9 mg/kg	0.5 mg/kg	Change in foot-licking latency (Mus musculus [5]): 113%; inhibition in vivo at 50 mg/kg (Rattus norvegicus [6]): 0%; Mortality threshold (Mus musculus [8]): 512 mg/kg; inhibition in vivo at 50 mg/kg (Rattus norvegicus [9]): 2%; Variation of edema volume (Rattus norvegicus [10]): -25%
O=c1oc2ncccc2n1CCN1CCCC1	55%	0.8	0.8	55%	–	–	–
O=c1oc2ncccc2n1CCN1CCN(c2cccc(C(F)(F)F)c2)CC1	10%	0.1	0.2	11%	–	–	–
COc1ccc2c(c1)c(CC(=O)O)c(C)n2C(=O)c1ccc(Cl)cc1 [INDOMETHACIN]	–	–	–	–	–	–	inhibition in vivo at 10 mg/kg (Rattus norvegicus [12]): 18%; inhibition in vivo at 10 mg/kg (Rattus norvegicus [13]): 100%; Change in volume (Rattus norvegicus [10]): -57%
O=c1oc2ncccc2n1CCCCN1CCC(c2ccccc2)CC1	0%	0	1.5	59%	–	–	–
O=c1oc2ncccc2n1CCCCCN1CCN(c2ccc(F)cc2)CC1	100%	1.4	1.6	100%	11.4 mg/kg	30.4 mg/kg	–
O=c1oc2ncccc2n1CCCN1CCN(c2ccc(F)cc2)CC1	85%	1.6	2	79%	5.6 mg/kg	0.5 mg/kg	Change in volume (Rattus norvegicus [14]): -11%; Change in foot-licking latency (Mus musculus [15]): 87%; Mortality threshold (Mus musculus [16]): 1024 mg/kg; inhibition in vivo at 1.5 mg/kg (Rattus norvegicus [17]): 44%; inhibition in vivo at 1.5 mg/kg (Rattus norvegicus [18]): 4%; inhibition in vivo at 1.5 mg/kg (Rattus norvegicus [19]): 63%; inhibition in vivo at 50 mg/kg (Rattus norvegicus [6]): 16%; inhibition in vivo at 1.5 mg/kg (Rattus norvegicus [20]): 47%; inhibition in vivo at 1.5 mg/kg (Rattus norvegicus [21]): 65%; inhibition in vivo at 50 mg/kg (Rattus norvegicus [9]): -5%; inhibition in vivo at 1.5 mg/kg (Rattus norvegicus [22]): 50%
O=c1oc2ncccc2n1CCN1CCN(c2cccc3ccccc23)CC1	33%	0.7	0.1	6%	–	–	–
O=C(CCn1c(=O)oc2ncccc21)N1CCN(c2ccc(F)cc2)CC1	25%	0.4	0.5	43%	–	–	–
O=c1oc2ncccc2n1CCN1CCN(Cc2ccccc2)CC1	43%	0.9	0.7	48%	–	–	–
O=C1CCN(c2ccccc2)N1 [PHENIDONE]	–	–	–	–	–	–	Change in volume (Rattus norvegicus [23]): -68%; inhibition in vivo at 200 mg/kg (Rattus norvegicus [24]): 100%; inhibition in vivo at 200 mg/kg (Rattus norvegicus [25]): 100%
O=c1oc2ncccc2n1CCCCCCN1CCN(c2ccc(F)cc2)CC1	100%	1.4	1.6	100%	7.7 mg/kg	14.2 mg/kg	–
